Measurements taken from patent publication US10407467B2, “Polymyxin derivatives and their use in combination therapy together with different antibiotics” (priority 2013, dated 2019).
Structures can show the parent of a compound that is named as a salt. Bridge positions count the residues as written; N and C are the ends. Square brackets hold non-standard residues; d marks the D form. Peptide text beside a SMILES is read from it. * marks the point of attachment. ξ: configuration not given here. X17 = CN1CCN(c2ccc(C(=O)*)cc2)CC1; X8 = N[C@@H]1CC[C@H](C(=O)*)C1; Thr(3ξ) = CC(O)[C@H](N)C(=O)O; X13 = O=C(CC[C@@H]1CCCN1)*; X9 = CC(C)[C@H](N)CCC(=O)*; Dab = NCC[C@H](N)C(=O)O; X14 = CC(C)(N)CCC(=O)*; Inp = O=C(O)C1CCNCC1; βAla = NCCC(=O)O

What was measured:
Format in all cases: cell-based
[1] = system: Klebsiella pneumoniae; experiment: MIC, compound in combination with a second agent (broth microdilution); conditions: 1:1 (wt:wt) combination with Rifampicin; for MIC K. pneumoniae NCTC 13438: strain NCTC 13438; for MIC K. pneumoniae ATCC 4352: strain ATCC 4352
How it was run: (§1)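 Susceptibility was tested on up to four strains of each pathogen with the compound paired 1:1 by weight alongside another antibacterial. Values count both components together and use the lower duplicate if replicates agreed within 2-fold.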

[2] = system: Escherichia coli; experiment: as above; conditions: 1:1 (wt:wt) combination with Rifampicin; for MIC E. coli NCTC9001: strain NCTC9001
How it was run: as §1

[3] = system: Klebsiella pneumoniae; experiment: MIC, sole activity (no second agent); conditions: in the absence of Rifampicin; for MIC K. pneumoniae ATCC 4352: strain ATCC 4352; for MIC K. pneumoniae ATCC-BAA2146: strain ATCC-BAA2146; for MIC K. pneumoniae CCUG-59348: strain CCUG-59348; for MIC K. pneumoniae NCTC-13438: strain NCTC-13438
How it was run: (§2)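 First, isolated colonies grown 18-24 hours on Mueller-Hinton agar were suspended to 0.5 McFarland; next, up to four strains per pathogen were tested in duplicate in cation-adjusted MHB; finally, the lower concordant value or modal repeat value was reported against Polymyxin B.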

[4] = system: Escherichia coli; experiment: MIC, sole activity (no second agent); conditions: in the absence of Rifampicin; for MIC E. coli ATCC25922: strain ATCC25922; for MIC E. coli NCTC9001: strain NCTC9001
How it was run: as §2

[5] = system: Pseudomonas aeruginosa; experiment: MIC, sole activity (no second agent); conditions: in the absence of Rifampicin; for MIC P. aeruginosa ATCC 27853: strain ATCC27853; for MIC P. aeruginosa ATCCCRM-9027: strain ATCCCRM-9027
How it was run: as §2

[6] = system: Acinetobacter baumannii; experiment: MIC, sole activity (no second agent); conditions: in the absence of Rifampicin; for MIC A. baumannii ATCCBAA-747: strain ATCCBAA-747; for MIC A. baumannii NCTC 13423: strain NCTC13423
How it was run: as §2

[7] = system: Pseudomonas aeruginosa; experiment: MIC, compound in combination with a second agent (broth microdilution); conditions: 1:1 (wt:wt) combination with Rifampicin
How it was run: as §1

[8] = MIC = total drug concentration, strain ATCC-BAA-2146
[9] = MIC = total drug concentration, strain CCUG-59348
[10] = MIC = total drug concentration, strain ATCC25922
[11] = MIC = total drug concentration, strain ATCC 27853
[12] = MIC = total drug concentration, strain CCUG 59626
[13] = MIC is total drug concentration

Structure (SMILES)	MIC K. pneumoniae ATCC-BAA-2146 [1, 8]	MIC K. pneumoniae CCUG-59348 [1, 9]	MIC K. pneumoniae NCTC 13438 ([1]; MIC = total drug concentration)	MIC E. coli ATCC25922 [2, 10]	MIC E. coli NCTC9001 ([2]; MIC = total drug concentration)	MIC K. pneumoniae ATCC 4352 [3]	MIC K. pneumoniae ATCC-BAA2146 [3]	MIC K. pneumoniae CCUG-59348 [3]	MIC K. pneumoniae NCTC-13438 [3]	MIC E. coli ATCC25922 [4]	MIC P. aeruginosa ATCC 27853 [5]	MIC E. coli NCTC9001 [4]	MIC P. aeruginosa ATCC 27853 [7, 11]	MIC P. aeruginosa CCUG 59626 [7, 12]	other results
CC(C)C[C@@H]1NC(=O)[C@@H](CC(C)C)NC(=O)[C@H](CCN)NC(=O)[C@@H](NC(=O)[C@H](CCN)NC(=O)[C@@H](NC(=O)C(O)C2CCCCC2)C(C)O)CCNC(=O)[C@H](C(C)O)NC(=O)[C@H](CCN)NC(=O)[C@H](CCN)NC1=O (single isomer, unassigned; isomer 2) [Example 32, 2(RS)-(2-Hydroxy-2-cyclohexyl)ethanoyl polymyxin E nonapeptide, TFA salt. Isomer 2]	1 micrograms/mL	2 micrograms/mL	1 micrograms/mL	0.5 micrograms/mL	1 micrograms/mL	–	–	–	–	–	–	–	–	–	–
CC(C)C[C@@H]1NC(=O)[C@@H](Cc2ccccc2)NC(=O)[C@H](CCN)NC(=O)[C@@H](NC(=O)[C@H](CCN)NC(=O)[C@@H](NC(=O)CCN)C(C)O)CCNC(=O)[C@H](C(C)O)NC(=O)[C@H](CCN)NC(=O)[C@H](CCN)NC1=O (stereo partly drawn) [Example 3, 3-Aminopropanoyl polymyxin B nonapeptide] (H-[βAla][Thr(3ξ)][Dab][Dab][Dab][dF]L[Dab][Dab][Thr(3ξ)]; lactam 4-C)	1 micrograms/mL	8 micrograms/mL	2 micrograms/mL	–	0.25 micrograms/mL	0.125 micrograms/mL	>32 micrograms/mL	>32 micrograms/mL	>32 micrograms/mL	2 micrograms/mL	0.125 micrograms/mL	–	–	–	MIC P. aeruginosa ATCCCRM-9027 [5]: 0.25 micrograms/mL; MIC A. baumannii ATCCBAA-747 [6]: 1 micrograms/mL; MIC A. baumannii NCTC 13423 [6]: 1 micrograms/mL
CC(C)C[C@@H]1NC(=O)[C@@H](Cc2ccccc2)NC(=O)[C@H](CCN)NC(=O)[C@@H](NC(=O)[C@H](CCN)NC(=O)[C@@H](NC(=O)CCC(C)(C)N)C(C)O)CCNC(=O)[C@H](C(C)O)NC(=O)[C@H](CCN)NC(=O)[C@H](CCN)NC1=O (stereo partly drawn) [Example 21, 4-Amino-4-methyl pentanoyl polymyxin B nonapeptide] (X14-[Thr(3ξ)][Dab][Dab][Dab][dF]L[Dab][Dab][Thr(3ξ)]; lactam 3-C)	0.5 micrograms/mL	8 micrograms/mL	0.5 micrograms/mL	–	0.25 micrograms/mL	0.25 micrograms/mL	>32 micrograms/mL	>32 micrograms/mL	>32 micrograms/mL	4 micrograms/mL	<0.06 micrograms/mL	>32 micrograms/mL	–	–	–
CC(C)C[C@@H]1NC(=O)[C@@H](Cc2ccccc2)NC(=O)[C@H](CCN)NC(=O)[C@@H](NC(=O)[C@H](CCN)NC(=O)[C@@H](NC(=O)CC[C@@H](N)C(C)C)C(C)O)CCNC(=O)[C@H](C(C)O)NC(=O)[C@H](CCN)NC(=O)[C@H](CCN)NC1=O (stereo partly drawn) [Example 22, 4(R)-Amino-5-methylhexanoyl polymyxin B nonapeptide] (X9-[Thr(3ξ)][Dab][Dab][Dab][dF]L[Dab][Dab][Thr(3ξ)]; lactam 3-C)	0.25 micrograms/mL	4 micrograms/mL	0.5 micrograms/mL	–	0.125 micrograms/mL	0.5 micrograms/mL	>32 micrograms/mL	>32 micrograms/mL	>32 micrograms/mL	8 micrograms/mL	0.125 micrograms/mL	>32 micrograms/mL	–	–	MIC P. aeruginosa ATCCCRM-9027 [5]: 0.5 micrograms/mL; MIC A. baumannii ATCCBAA-747 [6]: 1 micrograms/mL; MIC A. baumannii NCTC 13423 [6]: 0.5 micrograms/mL
CC(C)C[C@@H]1NC(=O)[C@@H](Cc2ccccc2)NC(=O)[C@H](CCN)NC(=O)[C@@H](NC(=O)[C@H](CCN)NC(=O)[C@@H](NC(=O)CC[C@@H]2CCCN2)C(C)O)CCNC(=O)[C@H](C(C)O)NC(=O)[C@H](CCN)NC(=O)[C@H](CCN)NC1=O (stereo partly drawn) [Example 23, 3-(S)-(1-pyrrolidin-2-yl)-propionyl polymyxin B nonapeptide] (X13-[Thr(3ξ)][Dab][Dab][Dab][dF]L[Dab][Dab][Thr(3ξ)]; lactam 3-C)	1 micrograms/mL	8 micrograms/mL	1 micrograms/mL	–	0.25 micrograms/mL	1 micrograms/mL	>32 micrograms/mL	>32 micrograms/mL	>32 micrograms/mL	16 micrograms/mL	0.125 micrograms/mL	>32 micrograms/mL	–	–	–
CC(C)C[C@@H]1NC(=O)[C@@H](Cc2ccccc2)NC(=O)[C@H](CCN)NC(=O)[C@@H](NC(=O)[C@H](CCN)NC(=O)[C@@H](NC(=O)[C@H]2CC[C@@H](N)C2)C(C)O)CCNC(=O)[C@H](C(C)O)NC(=O)[C@H](CCN)NC(=O)[C@H](CCN)NC1=O (stereo partly drawn) [Example 34B, (1S,3R)-3- Aminocyclopentane carbonyl polymyxin B nonapeptide] (X8-[Thr(3ξ)][Dab][Dab][Dab][dF]L[Dab][Dab][Thr(3ξ)]; lactam 3-C)	–	–	–	<0.06 micrograms/mL	–	–	–	–	–	–	–	–	–	–	MIC P. aeruginosa ATCC CRM-9027 ([7]; MIC = total drug concentration, strain ATCC CRM-9027): 0.25 micrograms/mL
CC(C)C[C@@H]1NC(=O)[C@@H](Cc2ccccc2)NC(=O)[C@H](CCN)NC(=O)[C@@H](NC(=O)[C@H](CCN)NC(=O)[C@@H](NC(=O)[C@H](CCN)NC(=O)C2CCNCC2)C(C)O)CCNC(=O)[C@H](C(C)O)NC(=O)[C@H](CCN)NC(=O)[C@H](CCN)NC1=O (stereo partly drawn) [Example 53, Piperidin-4-yl carbonyl-polymyxin B decapeptide, trifluoroacetate salt] (H-[Inp][Dab][Thr(3ξ)][Dab][Dab][Dab][dF]L[Dab][Dab][Thr(3ξ)]; lactam 5-C)	1 micrograms/mL	4 micrograms/mL	–	0.125 micrograms/mL	–	–	–	–	–	–	–	–	≤0.06 micrograms/mL	≤0.06 micrograms/mL	MIC K. pneumoniae ATCC 4352 ([1]; MIC = total drug concentration): ≤0.06 micrograms/mL
CC(C)C[C@@H]1NC(=O)[C@@H](Cc2ccccc2)NC(=O)[C@H](CCN)NC(=O)[C@@H](NC(=O)[C@H](CCN)NC(=O)[C@@H](NC(=O)[C@H](CCCCN)NC(=O)C2CCNCC2)C(C)O)CCNC(=O)[C@H](C(C)O)NC(=O)[C@H](CCN)NC(=O)[C@H](CCN)NC1=O (stereo partly drawn) [Example 54, Piperidin-4-yl carbonyl-L-Lys-polymyxin B nonapeptide, trifluoroacetate salt] (H-[Inp]K[Thr(3ξ)][Dab][Dab][Dab][dF]L[Dab][Dab][Thr(3ξ)]; lactam 5-C)	1 micrograms/mL	4 micrograms/mL	–	0.25 micrograms/mL	–	–	–	–	–	–	–	–	≤0.06 micrograms/mL	≤0.06 micrograms/mL	MIC K. pneumoniae ATCC 4352 ([1]; MIC = total drug concentration): 0.125 micrograms/mL
CC(C)C[C@@H]1NC(=O)[C@@H](Cc2ccccc2)NC(=O)[C@H](CCN)NC(=O)[C@@H](NC(=O)[C@H](CCN)NC(=O)[C@@H](NC(=O)c2ccc(N3CCN(C)CC3)cc2)C(C)O)CCNC(=O)[C@H](C(C)O)NC(=O)[C@H](CCN)NC(=O)[C@H](CCN)NC1=O (stereo partly drawn) [Example 55, 4-(4-Methyl-piperazin-1-yl) benzoyl polymyxin B nonapeptide] (X17-[Thr(3ξ)][Dab][Dab][Dab][dF]L[Dab][Dab][Thr(3ξ)]; lactam 3-C)	1 micrograms/mL	4 micrograms/mL	–	0.125 micrograms/mL	–	–	–	–	–	–	–	–	0.25 micrograms/mL	0.25 micrograms/mL	MIC K. pneumoniae ATCC-BAA-2146 [1, 13]: 1 micrograms/mL; MIC K. pneumoniae CCUG-59348 [1, 13]: 4 micrograms/mL; MIC E. coli ATCC25922 [2, 13]: 0.125 micrograms/mL; MIC P. aeruginosa ATCC 27853 [7, 13]: 0.25 micrograms/mL; MIC P. aeruginosa CCUG 59626 [7, 13]: 0.25 micrograms/mL
